Assay results from US20070161560A1, “Use of vanilloid 4 receptor and antagonists or agonists thereof for treating diseases associated with pain” (SmithKline Beecham plc, priority 2000, published 2007).

Assays:
Type in all cases: cell-based
[1] = test system: VR4 endogenously expressed by chondrocytes; test: FLIPR cytoplasmic calcium (Fluo-3), bovine articular chondrocytes; conditions: channel blocker against the 4α-PDD response
Protocol: (§1) The VR4 cDNA was inserted into the expression vector pcDNA3.1 V5-His (Invitrogen). Wildtype HEK293 cells, or HEK293 cells transfected with the human VR4:pcDNA3.1 V5-His construct, or mock transfected cells, or bovine chondrocytes, were seeded into 96-well microtitre plates at 25,000 cells/well and cultured overnight. The cells were then incubated with 4 microM Fluo-3 for 2 hrs at room temperature in the dark. Dye loaded cells were washed 4× with Tyrodes buffer: (NaCl, 145 mM; KCl, 2.5 mM; Hepes, 10 mM; Glucose, 10 mM; MgC12, 1.2 mM; CaCl2, 1.5 mM), which also contained 0.2% BSA but not probenecid. Agonists and antagonists were also prepared in Tyrodes buffer. Cells were preincubated for 30 mins with antagonist or buffer. Agonist addition and measurement of cytoplasmic calcium concentration was performed in the FLIPR (Smart et al., (2000) Br. J. Pharmacol. 129, 227-230).
The response was dependent upon extracellular calcium ions and was blocked by the channel blocker ruthenium red.

[2] = test system: wild type HEK293 cells; test: FLIPR cytoplasmic calcium (Fluo-3), wild type HEK293 cells; conditions: result in words
Protocol: as §1

[3] = target: human VR1 (Homo sapiens, UniProt Q8NER1); conditions: for pEC50 hVR1: increase of intracellular calcium, human VR1, mean ± s.e. mean, n = 3-5, IA = inactive; for activity at VR1: result in words
[4] = test system: HEK293 cells transfected with empty vector; test: FLIPR cytoplasmic calcium (Fluo-3), HEK293 cells transfected with empty vector; conditions: result in words
Protocol: as §1

[5] = target: T1, human VR4 (Homo sapiens, UniProt Q9HBA0); test: FLIPR cytoplasmic calcium (Fluo-3), HEK293 cells transfected with human VR4; conditions: for effect on intracellular calcium in HEK293-VR4 cells: result in words; for pEC50 hVR4: increase of intracellular calcium, mean ± s.e. mean, n = 3-5, IA = inactive; for effect on intracellular calcium in HEK293-VR4 cells / pEC50 hVR4: HEK293-VR4 cells
T1 construct: V5-His (vector-encoded); expressed in transfected cells; host or cells: HEK293
Protocol: as §1

Chain of human VR1 (Q8NER1 whole entry): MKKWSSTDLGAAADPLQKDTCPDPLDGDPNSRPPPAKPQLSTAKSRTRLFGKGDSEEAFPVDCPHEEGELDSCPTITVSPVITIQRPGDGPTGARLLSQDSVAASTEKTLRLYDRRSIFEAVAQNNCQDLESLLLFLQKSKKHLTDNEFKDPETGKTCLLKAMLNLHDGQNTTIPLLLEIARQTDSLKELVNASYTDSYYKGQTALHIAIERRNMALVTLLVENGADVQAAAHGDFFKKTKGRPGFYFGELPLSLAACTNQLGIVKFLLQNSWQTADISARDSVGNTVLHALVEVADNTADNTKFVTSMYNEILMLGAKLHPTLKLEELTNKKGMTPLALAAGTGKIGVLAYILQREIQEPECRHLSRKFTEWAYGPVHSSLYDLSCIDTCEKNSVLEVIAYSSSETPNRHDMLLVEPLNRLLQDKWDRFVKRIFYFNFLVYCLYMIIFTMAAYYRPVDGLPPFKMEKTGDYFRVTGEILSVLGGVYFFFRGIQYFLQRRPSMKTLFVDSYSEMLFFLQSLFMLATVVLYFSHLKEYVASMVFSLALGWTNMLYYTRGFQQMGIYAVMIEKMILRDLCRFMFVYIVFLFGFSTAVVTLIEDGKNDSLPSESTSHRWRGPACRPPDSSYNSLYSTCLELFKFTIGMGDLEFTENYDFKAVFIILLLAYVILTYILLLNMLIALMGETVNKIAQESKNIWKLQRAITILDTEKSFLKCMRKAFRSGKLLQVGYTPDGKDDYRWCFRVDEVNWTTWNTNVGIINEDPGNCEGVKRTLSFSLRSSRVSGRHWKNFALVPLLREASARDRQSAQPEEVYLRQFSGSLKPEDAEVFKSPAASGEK
T1 sequence (Q9HBA0 whole entry): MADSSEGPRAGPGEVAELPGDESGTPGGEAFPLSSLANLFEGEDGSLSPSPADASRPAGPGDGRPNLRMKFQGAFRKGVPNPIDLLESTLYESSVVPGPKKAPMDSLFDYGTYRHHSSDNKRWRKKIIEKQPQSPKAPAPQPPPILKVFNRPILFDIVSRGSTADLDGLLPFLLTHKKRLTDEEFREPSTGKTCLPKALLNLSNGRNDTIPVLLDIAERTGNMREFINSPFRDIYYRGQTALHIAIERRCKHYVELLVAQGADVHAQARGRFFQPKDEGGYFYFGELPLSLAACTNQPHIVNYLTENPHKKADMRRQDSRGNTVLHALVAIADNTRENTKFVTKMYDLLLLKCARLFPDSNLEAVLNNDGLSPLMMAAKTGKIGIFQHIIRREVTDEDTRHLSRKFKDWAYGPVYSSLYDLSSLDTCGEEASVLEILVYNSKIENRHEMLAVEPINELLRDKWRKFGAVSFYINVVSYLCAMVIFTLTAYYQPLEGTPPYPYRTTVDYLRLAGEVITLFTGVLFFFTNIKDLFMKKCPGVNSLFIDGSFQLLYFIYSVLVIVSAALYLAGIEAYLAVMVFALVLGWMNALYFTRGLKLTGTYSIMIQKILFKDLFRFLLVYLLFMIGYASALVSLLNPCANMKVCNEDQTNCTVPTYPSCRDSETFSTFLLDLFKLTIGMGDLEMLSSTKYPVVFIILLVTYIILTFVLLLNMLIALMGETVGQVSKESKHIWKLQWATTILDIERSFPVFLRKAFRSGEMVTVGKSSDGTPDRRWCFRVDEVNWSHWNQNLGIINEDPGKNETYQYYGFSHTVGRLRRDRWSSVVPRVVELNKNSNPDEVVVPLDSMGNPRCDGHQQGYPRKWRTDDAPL

Structure (SMILES) | block of the response to 4α-PDD in bovine articular chondrocytes [1] | effect on intracellular calcium in wild type HEK293 cells [2] | Emax at VR1 ([3]; compared to capsaicin and RTX) | pEC50 hVR1 [3] | activity at VR1 [3] | effect on intracellular calcium in cells transfected with empty vector [4] | effect on intracellular calcium in HEK293-VR4 cells [5] | pEC50 hVR4 [5] | selectivity VR4 over VR1 ([5]; conclusion from pEC50 at hVR4 and hVR1)
N.N.N.N.N.N.N.N.N.N.N.N.N.N.[Cl-].[Cl-].[Cl-].[Cl-].[Cl-].[Cl-].[O-2].[O-2].[Ru+3].[Ru+3].[Ru+4] [ruthenium red] | blocked |  |  |  |  |  |  |  | 
CCCCCCCCCCCCCC(=O)O[C@@H]1[C@@H](C)[C@@]2(O)[C@@H](C=C(CO)C[C@]3(O)C(=O)C(C)=C[C@@H]23)[C@@H]2C(C)(C)[C@]12OC(C)=O [PMA, phorbol 12-myristate 13-acetate] |  | without effect | 0.46 | 7.86 ± 0.06 | partial agonist | without effect | increased intracellular calcium | 6.64 ± 0.06 | 
CCCCCCCCCC(=O)O[C@@H]1[C@@H](C)[C@@]2(O)[C@@H](C=C(CO)C[C@@]3(O)C(=O)C(C)=C[C@@H]23)[C@@H]2C(C)(C)[C@]12OC(=O)CCCCCCCCC [4αPDD, 4α-phorbol-12,13-didecanoate] |  | without effect |  |  | inactive | without effect | increased intracellular calcium | 5.73 ± 0.06 | VR4 selective agonist
C=C(C)[C@]12C[C@@H](C)[C@@]34O[C@](Cc5ccccc5)(O[C@@H]1[C@@H]3C=C(COC(=O)Cc1ccc(O)c(OC)c1)C[C@]1(O)C(=O)C(C)=C[C@@H]41)O2 [RTX] |  |  |  | 8.93 ± 0.20 |  |  |  |  | 
